In patent US10435389B2, “Octahydrocyclopenta[c]pyrrole allosteric inhibitors of SHP2” (Krouzon Pharmaceuticals, Inc., priority 2017, dated 2019):
Counter-ions that a name gives are not always drawn.

Target: T1, human recombinant SHP2 (Homo sapiens, UniProt Q06124)
T1 sequence (Q06124 1-593): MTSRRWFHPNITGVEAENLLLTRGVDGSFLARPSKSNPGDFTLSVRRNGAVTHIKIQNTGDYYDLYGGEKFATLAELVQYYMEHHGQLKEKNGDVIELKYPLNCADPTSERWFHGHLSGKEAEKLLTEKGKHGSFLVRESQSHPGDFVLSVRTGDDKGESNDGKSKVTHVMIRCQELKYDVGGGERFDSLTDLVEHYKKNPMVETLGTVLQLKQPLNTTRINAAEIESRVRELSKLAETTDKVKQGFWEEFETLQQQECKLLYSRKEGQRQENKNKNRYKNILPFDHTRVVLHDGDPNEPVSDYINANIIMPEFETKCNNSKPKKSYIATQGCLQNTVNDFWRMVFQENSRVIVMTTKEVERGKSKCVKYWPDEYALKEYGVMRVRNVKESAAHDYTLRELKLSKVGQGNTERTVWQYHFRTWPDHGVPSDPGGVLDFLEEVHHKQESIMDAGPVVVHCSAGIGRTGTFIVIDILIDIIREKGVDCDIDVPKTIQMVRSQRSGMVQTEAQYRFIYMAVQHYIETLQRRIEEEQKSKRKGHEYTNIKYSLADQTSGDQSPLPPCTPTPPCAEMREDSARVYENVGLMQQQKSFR
Experiment: Protein Tyrosine Phosphatase (PTP) assay and IC50 measurements of inhibitors (DiFMUP fluorescence)
Assay type: biochemical
Conditions: 100 ng/mL human recombinant SHP2, 0.5 μM activating peptide IRS1_pY1172(dPEG8)pY1222, substrate DiFMUP 200 μM, room temperature; read-out: IC50 (SHP2 inhibition)
Description: Example E: Protein Tyrosine Phosphatase (PTP) Assay and IC50 Measurements of Inhibitors
The phosphatase activity of SHP2 was monitored using the surrogate substrate DiFMUP in a fluorescence assay format. The phosphatase reactions were performed at room temperature in 96-well black polystyrene plate, flat bottom plate using a final reaction volume of 100 μL with the following assay buffer conditions: 60 mM HEPES, pH 7.2, 75 mM NaCl, 75 mM KCl, 1 mM EDTA, 0.05% Tween-20, 5 mM DTT.
To determine the IC50 of a compound, an eight-point dose response curve was generated in duplicate. Compounds were incubated at concentrations ranging from 0 μM to 10 μM with 100 ng/mL of human recombinant SHP2 and 0.5 μM of activating peptide IRS1_pY1172(dPEG8)pY1222 (sequence H2N-LN(pY)IDLDLV-(dPEG8)LST(pY)ASINFQK-amide) (SEQ ID NO 1). After 30 min incubation at room temperature (23-27° C.), the surrogate substrate DiFMUP (200 μM) was added to the reaction and incubated at room temperature for 30 min. The fluorescence signal was monitored using a microplate reader (Spectramax M5e, […]) using excitation and emission wavelengths of 340 and 450 nm, respectively. The inhibitor dose-response curves were analyzed using SoftmaxPro v5.2 software.

C[C@]1(N)C[C@H]2CN(c3cnc(-c4cccc(Cl)c4F)c(N)n3)C[C@H]2C1 [Example 5, (3aR,5r,6aS)-2-(6-amino-5-(3-chloro-2-fluorophenyl)pyrazin-2-yl)-5-methyloctahydrocyclopenta[c]pyrrol-5-amine]
IC50: < 9 µM

C[C@@]1(N)C[C@H]2CN(c3cnc(-c4cccc(Cl)c4Cl)c(N)n3)C[C@H]2C1 [Example 7, (3aR,5s,6aS)-2-(6-amino-5-(2,3-dichlorophenyl)pyrazin-2-yl)-5-methyloctahydrocyclopenta[c]pyrrol-5-amine]
IC50: < 9 µM

C[C@]1(N)C[C@H]2CN(c3ncc(-c4cccc(Cl)c4Cl)c(N)n3)C[C@H]2C1 [Example 11, (3aR,5r,6aS)-2-(4-amino-5-(2,3-dichlorophenyl)pyrimidin-2-yl)-5-methyloctahydrocyclopenta[c]pyrrol-5-amine]
IC50: < 9 µM

Cc1cccc(-c2ncc(N3C[C@@H]4C[C@](C)(N)C[C@@H]4C3)nc2N)c1Cl [Example 1, (3aR,5r,6aS)-2-(6-amino-5-(2-chloro-3-methylphenyl)pyrazin-2-yl)-5-methyloctahydrocyclopenta[c]pyrrol-5-amine hydrochloride salt]
IC50: < 9 µM

C[C@]1(N)C[C@H]2CN(c3ncc(-c4cccc(F)c4Cl)c(N)n3)C[C@H]2C1 [Example 12, (3aR,5r,6aS)-2-(4-amino-5-(2-chloro-3-fluorophenyl)pyrimidin-2-yl)-5-methyloctahydrocyclopenta[c]pyrrol-5-amine]
IC50: < 9 µM

C[C@]1(N)C[C@H]2CN(c3ncc(-c4cccnc4Cl)c(N)n3)C[C@H]2C1 [Example 13, (3aR,5r,6aS)-2-(4-amino-5-(2-chloropyridin-3-yl)pyrimidin-2-yl)-5-methyloctahydrocyclopenta[c]pyrrol-5-amine]
IC50: > 10 µM

Cc1cccc(-c2ncc(N3C[C@@H]4C[C@@](C)(N)C[C@@H]4C3)nc2N)c1Cl [Example 8, (3aR,5s,6aS)-2-(6-amino-5-(2-chloro-3-methylphenyl)pyrazin-2-yl)-5-methyloctahydrocyclopenta[c]pyrrol-5-amine]
IC50: < 9 µM

C[C@]1(N)C[C@H]2CN(c3cnc(-c4cccnc4Cl)c(N)n3)C[C@H]2C1 [Example 4, (3aR,5r,6aS)-2-(6-amino-5-(2-chloropyridin-3-yl)pyrazin-2-yl)-5-methyloctahydrocyclopenta[c]pyrrol-5-amine]
IC50: < 9 µM

C[C@]1(N)C[C@H]2CN(c3cnc(-c4cccc(Cl)c4Cl)c(N)n3)C[C@H]2C1 [Example 2, (3aR,5r,6aS)-2-(6-amino-5-(2,3-dichlorophenyl)pyrazin-2-yl)-5-methyloctahydrocyclopenta[c]pyrrol-5-amine]
IC50: < 9 µM
